Assay results published in patent publication US20070140972A1, “Targeting compositions and preparation therof” (CTT CANSER TARGETING TECHNOLOGIES OY, priority 2003, published 2007).
Where a SMILES comes first, the peptide text is derived from it.

Assays:
[1] = Serum stability of CTT2 derivative; format: in vitro ADME; conditions: versus wild type CTT2 peptide
tumour cell migration = test: Inhibition of tumour cell migration; format: cell-based; conditions: versus wild type CTT2 peptide
[2] = tested on: human ovarian carcinoma tumours (OV-90); test: Biodistribution of I-125 labelled 6F-Trp CTT2 peptide in OV-90 tumour mice (gamma counting); format: in vivo; conditions: 30 min and 180 min; clearance comparable to blood
Method: FIG. 8. The biodistribution study of I-125 labelled 6F-Trp CTT2 ([…][6-fluoro]WGFTLC)-peptide. The in vivo biodistribution of the ^125I-labeled peptide was assessed at two time points in NMRI/nude mice carrying human ovarian tumours on their lower back. Results are expressed as percentage of injected dose per 1 g tissue (% ID/1 g). All values are indicated as mean±SD of 5 mice.
The 6F-Trp CTT2 peptide was used in biodistribution study to evaluate its kinetic and tumour targeting properties. The study was performed in mice with established human ovarian carcinoma tumours (OV-90). The 6F-Trp CTT2 peptide was labelled with iodine-125. 40 μg of purified and labelled peptide (˜1 MBq) was injected into the tail vein of mice. 30 min and 180 min after peptide injection mice were sacrificed and blood and tissue samples were collected. The accumulated radioactivity was determined with gamma counter.

A2780 cells = test: Therapeutic efficacy (survival) in A2780 xenograft mice; format: in vivo, NMRI nude female mice; conditions: three injections in three-day intervals; sacrificed when tumour exceeded 1000 mm^3
Method: A2780 cells were injected subcutaneously into the posterior flanks of 50 NMRI nude female mice. The mice were randomly allocated into five treatment groups. […] In this study, the mice received three drug injections of 9 mg liposomal or free doxorubicin/kg in three-day intervals.
The mice were weighed and their tumour sizes were measured twice a week after treatment initiation. When tumour sizes exceeded 1000 mm^3 the mice were sacrificed.

Row | serum stability in comparison to the wild type peptide [1] | accumulation of radioactivity in all other organs [2] | SMILES | ability to inhibit tumour cell migration in comparison to the wild type peptide (tumour cell migration) | survival status by five weeks after treatment initiation (A2780 cells)
1 | enhancement in serum stability | negligible | CC(C)C[C@@H]1NC(=O)[C@H]([C@@H](C)O)NC(=O)[C@H](Cc2ccccc2)NC(=O)CNC(=O)C(Cc2c[nH]c3cc(F)ccc23)NC(=O)[C@H](Cc2c[nH]cn2)NC(=O)[C@H]([C@@H](C)O)NC(=O)[C@H]([C@@H](C)O)NC(=O)[C@@H](NC(=O)CNC(=O)[C@H](Cc2c[nH]cn2)NC(=O)[C@H](Cc2ccc(O)cc2)NC(=O)[C@H](CC(N)=O)NC(=O)[C@H](CCC(=O)O)NC(=O)[C@H](CCCNC(=N)N)NC(=O)CN)CSSC[C@@H](C(N)=O)NC1=O (stereo partly drawn) [6F-Trp CTT2, GRENYHG-Cyclo(CTTH(d,l-6-Fluoro-W)GFTLC)-NH2] (HELM PEPTIDE1{G.R.E.N.Y.H.G.C.T.T.H.[O=C(C(Cc1c[nH]c2cc(F)ccc12)N[*:1])[*:2]].G.F.T.L.C.[am]}$PEPTIDE1,PEPTIDE1,8:R3-17:R3$$$V2.0; N-terminus assumed) | improved ability to inhibit tumour cell migration | –
2 | – | – | COc1cccc2c1C(=O)c1c(O)c3c(c(O)c1C2=O)C[C@@](O)(C(=O)CO)C[C@@H]3O[C@H]1C[C@H](N)[C@H](O)[C@H](C)O1 [free doxorubicin, doxorubicin] | – | had been sacrificed
